Data on one compound can be found in US20250041194A1, “COMPOSITION COMPRISING GALACTINOL AND USE THEREOF” (Clariant International Ltd, priority 2021, published 2025).

The test system of one assay is HSP27. In words: HSP27 protein expression by immunostaining. The conditions noted are these: NHDF, 24 h treatment, basal (non stressed) condition; FIG. 5. It is filed as cell-based, human. The protocol:
NHDF were treated with Gal or C-Gal for 24 h (treated cells). […] Pictures were realized with a Nikon microscope (Eclipse Ti2). The quantification of HSP27 was measured by image analysis of fluorescence intensity per cell using Image J software. The statistical analysis (Dunnett) was realized with Minitab software (*p<0.05 compared to control). Results were obtained by performing three independent assays.

Assay [1] has as its system NHEK. In words: Cell protection against environmental stress (heat, hydric), bright-field cell morphology observation. It is filed as cell-based, human. To be noted: heat stress 37 to 44° C. 30 min, hydric stress 90% to 45% relative humidity, or both, data not shown. The protocol: (§1) In the following studies, the capabilities of Gal and C-Gal to protect skin cells (NHEK and NHDF) against various stress agents such as UV irradiations (UVB and UVA), or environmental factors (humidity and temperature) were assessed.
Finally, the effect of environmental stress on cell morphology was studied in NHEK treated with and without Gal or C-Gal (using a bright-field imaging microscope). The environmental stress applied were either a heat stress (increase in temperature from 37° C. to 44° C. during 30 min), or an hydric stress “modulation of relative humidity from 90% to 45%” or a combination of both stresses “heat plus hydric stresses”.

A further assay deals with NHDF. In words: Cell protection against UVA irradiation, bright-field cell morphology observation. It is filed as cell-based, human. To be noted: UVA 10 J/cm^2, curative, observed after 24 hours, data not shown. The protocol:
as §1
The same experiments as described above were repeated by using UVA irradiation on NHDF in the following condition: • “Curative” condition: Gal or C-Gal was applied after UVA irradiation (10 J/cm^2), and the morphology of the cells were observed after 24 hours.

Assay [2] deals with normal human dermal fibroblasts (NHDF). In words: Transcriptomic study, mRNA expression by RT-qPCR (Taqman). It is filed as cell-based. To be noted: 24 h treatment, vs untreated. The protocol:
The mRNA expression was quantified after 24 h of NHDF treatment with both Gal and C-Gal.
mRNA extraction was realized according to the provider recommendations (Qiagen). Briefly, lysis buffer RLT-Plus was added on the cell pellet and the homogenous lysate was transferred in a column. The eluate was mixed with one volume 70° ethanol and was transferred in a pink <<RNeasy>> column. The column was washed with buffer. Elution was realized with RNase-free water and the RNA quantitation was done by D.O. 260 nm, 280 nm, 320 nm measurements (Biotek, Cytation3 & Take3 Plate) with “Nucleic Acid Quantification” software application. mRNA quality was checked using a fragment analyser (Advanced Analytical). Then, mRNA reverse transcription allowing the obtention of cDNA templates was performed on a thermal cycler (Bio-Rad). cDNA templates were used to perform the qPCR. For the transcriptomic study, it was used Biorad predesigned plates for ECM components, antioxidants genes, skin homeostasis. Then, the data generated allowed the automatic calculation using Bio-Rad CFX manager of mRNA expression fold change and p values in comparison to untreated condition.
All data are statistically significant compared to control condition (p value <0.05).
In general terms: In qPCR the cycle at which signal appears reflects the starting amount.

Assay [3] relates to NHEK. In words: Cell protection against UVB irradiation, bright-field cell morphology observation. In kind it is cell-based, human. To be noted: UVB 30 mJ/cm^2, preventive/curative/combined, observed after 24 hours, data not shown. The protocol: as §1
Briefly, using a bright-field imaging microscope, it was studied the effect of the UVB irradiation on NHEK's morphology in various experimental conditions in presence or not of Gal and C-Gal: • “Preventive” condition: Gal or C-Gal was applied on NHEK during 24 hours before UVB irradiation (30 mJ/cm^2), and the morphology of the cells was observed after 24 hours, • “Curative” condition: Gal or C-Gal was applied after UVB irradiation, and the morphology of the cells was observed after 24 hours, • Combined condition “preventive and curative”: Gal or C-Gal was applied before and after UVB irradiation and the morphology of the cells was observed after 24 hours.

As for `OC[C@H]1O[C@H](O[C@@H]2[C@@H](O)[C@H](O)[C@@H](O)[C@H](O)[C@@H]2O)[C@H](O)[C@@H](O)[C@H]1O` [Gal, 3-O-α-D-galactopyranosyl-D-myo-inositol], in the assay with HSP27, the “HSP27 expression (fluorescence intensity per cell)” value is recorded as “clear stimulation”. For the same compound, the cell morphology result in the assay with NHEK [1] is “quite regular and expected cells morphology”. In the assay on NHDF, the cell morphology result is “quite regular and expected cells morphology”; the “cell number vs stress condition alone” value was “more cells are present”. The “ECM genes and proteins expressions (COL5A1, ELN, SDC4, VCAN, LAMC2, LUM, ITGA1)” value in assay [2] (p value <0.05, FIG. 2) is recorded as “modulation”. For the same compound, the “antioxidant genes expression (NQO1, HMOX1, GPX1, G6PD)” value in assay [2] (p value <0.05, FIG. 3) is listed as “modulated”. Besides, in assay [2] (p value <0.05, FIG. 4), the “growth factors gene expression (TGF Beta 1 and NGF)” value is “upregulation”; the “heat shock proteins gene expression (HSPA1A and HSP90AA)” value is listed as “upregulation”; the “mRNA expressions of PCNA, MKi67 and GADD45A (DNA repair and cell proliferation)” value is “upregulation”. Also, in the assay on NHEK [3], the cell morphology entry was “quite regular and expected cells morphology”; the “cell number vs stress condition alone” value was “more cells are present”.
